Assay results taken from publication PMC4674819, “Identification of Novel Inhibitors of Organic Anion Transporting Polypeptides 1B1 and 1B3 (OATP1B1 and OATP1B3) Using a Consensus Vote of Six Classification Models” (Molecular Pharmaceutics, 2015).
Where “and” joins values, the source holds several entries; their conditions need not be identical. Identical values can stand only once. Counter-ions that a name gives are not always drawn. Like-named read-outs stand apart in the source and are kept apart here.

Tests used:
OATP1B1 [1] = biological target: T1, OATP1B1 (Homo sapiens, UniProt Q9Y6L6); assay: Inhibition of FMTX uptake in CHO cells stably transfected with OATP1B1; assay type: cell-based; conditions: for IC50: CHO cells stably transfected with OATP1B1, 5 μM FMTX, 10 min, 37 °C, means ± SD of three independent experiments; for Correctness of prediction, first symbol (OATP1B1): inhibitor class from measured IC50 against the consensus prediction
T1 construct: host or cells: CHO (Chinese hamster ovary) cells, stably transfected
T1 sequence (Q9Y6L6 1-691): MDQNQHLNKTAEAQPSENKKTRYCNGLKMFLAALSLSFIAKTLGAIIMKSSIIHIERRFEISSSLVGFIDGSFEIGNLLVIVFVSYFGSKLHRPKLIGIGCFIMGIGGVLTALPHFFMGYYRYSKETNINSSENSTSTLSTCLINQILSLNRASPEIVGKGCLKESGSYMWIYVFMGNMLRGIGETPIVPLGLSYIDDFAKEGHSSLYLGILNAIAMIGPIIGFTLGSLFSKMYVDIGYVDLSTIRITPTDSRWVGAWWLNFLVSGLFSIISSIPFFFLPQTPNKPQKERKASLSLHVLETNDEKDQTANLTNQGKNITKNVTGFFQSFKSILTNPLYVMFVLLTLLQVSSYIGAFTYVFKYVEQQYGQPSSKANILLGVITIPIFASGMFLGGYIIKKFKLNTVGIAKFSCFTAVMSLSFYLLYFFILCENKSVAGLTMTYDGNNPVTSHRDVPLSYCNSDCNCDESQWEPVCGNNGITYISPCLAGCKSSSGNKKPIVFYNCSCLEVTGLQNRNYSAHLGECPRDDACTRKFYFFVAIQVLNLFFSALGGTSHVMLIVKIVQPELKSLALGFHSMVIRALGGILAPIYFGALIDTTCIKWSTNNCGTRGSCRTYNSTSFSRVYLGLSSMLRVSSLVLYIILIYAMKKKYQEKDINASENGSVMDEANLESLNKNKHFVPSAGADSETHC
Experimental: (§1) Chinese hamster ovary (CHO) cells that were stably transfected with OATP1B1 or OATP1B3 and wild-type CHO cells were provided by the University of Zurich, Switzerland, and have been extensively characterized previously.[24],[56],[57] Cells were grown in Dulbecco’s modified Eagle medium (DMEM) supplemented with 10% FCS, 50 μg/mL L-proline, 100 U/mL penicillin, and 100 μg/mL streptomycin. The culture media of the transfected CHO cells additionally contained 500 μg/mL Geneticin sulfate (G418) (Sigma-Aldrich, Munich, Germany). Media and supplements were obtained from Invitrogen (Karlsruhe, Germany). Cells were incubated at 5% CO2 and 37 °C. For uptake experiments, CHO cells were seeded in 24-well plates (BD Biosciences, Heidelberg, Germany) at a density of 25,000 cells/well. Uptake assays were generally performed on day 3 after seeding, when the cells had grown to confluence. 24 h before starting the transport experiments, cells were additionally treated with 5 mM sodium butyrate (Sigma-Aldrich, Munich, Germany) to induce gene expression. Prior to the uptake experiments, cells were rinsed twice with 2 mL of prewarmed (37 °C) uptake buffer (116.4 mM NaCl, 5.3 mM KCL, 1 mM NaH2PO4, 0.8 mM MgSO4, 5.5 mM D-glucose, and 20 mM Hepes, pH adjusted to 7.4). Uptake was initiated by adding 0.5 mL of uptake buffer containing 5 μM of the fluorescent OATP1B1/1B3 substrate FMTX[58] in the presence or absence of inhibitors. After 10 min culture at 37 °C, uptake was stopped by removing the uptake solution and washing the cells 3 times with ice-cold uptake buffer. The cells were then lysed with 0.5 mL of 0.5% Triton X-100 solution dissolved in PBS and placed on a plate shaker for 30 min. Fluorescence was measured in an Enspire Multimode plate reader (PerkinElmer, Waltham, MA) at an excitation wavelength of 485 and an emission wavelength of 528 nm.
(§2) IC50 values were determined by plotting the log inhibitor concentration against the net uptake rate and nonlinear regression of the data set using the equation [drawing 1] in which y is the net uptake rate (pmol/μg of protein/min), I is the inhibitor concentration (μM), s is the slope at the point of inversion, and a and b are the maximum and minimum values for cellular uptake (GraphPad Software, San Diego, CA, USA) . Net uptake was calculated for each inhibitor concentration as the difference in the uptake rates of the transporter-expressing and wild-type cell lines. Unless otherwise indicated, values are expressed as mean ± SD of three individual experiments. Significant differences from control values were determined using a Student’s paired t test at a significance level of p < 0.05.

OATP1B3 [2] = biological target: T2, OATP1B3 (Homo sapiens, UniProt Q9NPD5); assay: Inhibition of FMTX uptake in CHO cells stably transfected with OATP1B3; assay type: cell-based; conditions: for Correctness of prediction, second symbol (OATP1B3): inhibitor class from measured IC50 against the consensus prediction
T2 construct: host or cells: CHO (Chinese hamster ovary) cells, stably transfected
T2 sequence (Q9NPD5 1-702): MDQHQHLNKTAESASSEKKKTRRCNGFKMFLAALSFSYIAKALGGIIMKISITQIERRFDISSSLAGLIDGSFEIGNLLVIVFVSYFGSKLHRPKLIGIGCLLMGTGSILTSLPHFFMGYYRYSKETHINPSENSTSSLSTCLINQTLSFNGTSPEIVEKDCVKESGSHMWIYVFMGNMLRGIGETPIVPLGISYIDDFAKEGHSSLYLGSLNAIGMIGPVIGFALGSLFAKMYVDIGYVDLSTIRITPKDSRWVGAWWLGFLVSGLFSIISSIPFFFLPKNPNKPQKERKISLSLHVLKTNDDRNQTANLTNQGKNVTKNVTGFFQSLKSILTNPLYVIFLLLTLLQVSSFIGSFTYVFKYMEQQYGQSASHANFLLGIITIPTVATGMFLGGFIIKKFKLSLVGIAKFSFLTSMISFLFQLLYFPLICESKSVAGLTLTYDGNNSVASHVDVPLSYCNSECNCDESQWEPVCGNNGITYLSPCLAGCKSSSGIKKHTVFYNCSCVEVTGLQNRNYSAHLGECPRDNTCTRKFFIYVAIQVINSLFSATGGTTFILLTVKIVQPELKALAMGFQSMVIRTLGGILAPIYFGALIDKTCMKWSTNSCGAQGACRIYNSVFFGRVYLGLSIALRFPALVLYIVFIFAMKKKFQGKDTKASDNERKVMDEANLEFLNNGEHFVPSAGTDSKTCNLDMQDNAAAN
Experimental: as §1, §2

OATP1B1 [3] = system: OATP1B1; set-up: method as in PMID 22541068; conditions: cited from earlier work
OATP1B1 [4] = system: OATP1B1; set-up: method as in PMID 23571415; conditions: cited from earlier work
OATP1B3 [5] = conditions: commercial library of 640 FDA-approved drugs; cited from earlier work
[6] = cited from earlier work
OATP1B1 [7] = system: OATP1B1; set-up: method as in PMID 25603031; conditions: commercial library of 640 FDA-approved drugs; cited from earlier work
[8] = CHO cells stably transfected with OATP1B3, 5 μM FMTX, 10 min, 37 °C, means ± SD of three independent experiments, read-out: IC50 (μM) OATP1B3
[9] = remark printed after the IC50 value, read-out: OATP1B3 inhibition, remark in the IC50 cell

SMILES	IC50 (OATP1B1 [1]) [µM]	Correctness of prediction, first symbol (OATP1B1) (OATP1B1 [1])	IC50 (OATP1B3 [2]; [8])	Correctness of prediction, second symbol (OATP1B3) (OATP1B3 [2])	OATP1B1 inhibition class as evaluated by Karlgren et al. (OATP1B1 [3])	OATP1B1 inhibition class as annotated by De Bruyn et al. (OATP1B1 [4])	rank among OATP1B3 inhibitors in the screen of van de Steeg et al. (OATP1B3 [5])	hepatotoxicity, literature reports [6]	hyperbilirubinemia, reports in online sources and literature [6]	rank among OATP1B1 inhibitors in the screen of van de Steeg et al. (OATP1B1 [7])	hepatic serum enzymes, literature report [6]	IC50 (OATP1B3 [2]; [9]) [µM]	OATP1B1 inhibition, result in words (OATP1B1 [1]; false negative of the OATP1B1 consensus model)	effect on liver injury, literature report ([6]; diabetic patients)
CC(C)C[C@H](NC(=O)[C@H](CCc1ccccc1)NC(=O)CN1CCOCC1)C(=O)N[C@@H](Cc1ccccc1)C(=O)N[C@@H](CC(C)C)C(=O)[C@@]1(C)CO1 [Carfilzomib]	0.38 ± 0.12	+++,+++ (strong inhibitor (IC50 values less than 1 μM))	0.9 ± 0.17 µM	+++,+++ (strong inhibitor (IC50 values less than 1 μM))	–	–	–	–	–	–	–	–	–	–
O=C(O)c1cc(/N=N/c2ccc(S(=O)(=O)Nc3ccccn3)cc2)ccc1O [sulfasalazine]	–	–	–	–	inhibitor	noninhibitor	–	–	–	–	–	–	–	–
CCC(=O)O[C@@H](O[P@](=O)(CCCCc1ccccc1)CC(=O)N1C[C@H](C2CCCCC2)C[C@H]1C(=O)O)C(C)C [Fosinopril sodium]	6.28 ± 1.13	+,+ (moderate inhibitors (IC50 values between 5 and 10 μM))	5.19 ± 0.98 µM	+,+ (moderate inhibitors (IC50 values between 5 and 10 μM))	–	–	20 strongest OATP1B1 and OATP1B3 inhibitors	some literature reports for hepatotoxicity	causing hyperbilirubinemia	20 strongest OATP1B1 and OATP1B3 inhibitors	–	–	–	–
CO[C@H]1C[C@@H]2CC[C@@H](C)[C@@](O)(O2)C(=O)C(=O)N2CCCC[C@H]2C(=O)O[C@H]([C@H](C)C[C@@H]2CC[C@@H](O)[C@H](OC)C2)CC(=O)[C@H](C)/C=C(\C)[C@@H](O)[C@@H](OC)C(=O)[C@H](C)C[C@H](C)/C=C/C=C/C=C/1C [Rapamycin (Sirolimus)]	0.62 ± 0.19	+++,+++ (strong inhibitor (IC50 values less than 1 μM))	–	+++,+++ (strong inhibitor (IC50 values less than 1 μM))	–	–	20 strongest OATP1B1 and OATP1B3 inhibitors	some literature reports for hepatotoxicity	causing hyperbilirubinemia	20 strongest OATP1B1 and OATP1B3 inhibitors	–	–	–	–
CC(=O)Nc1cccc(-n2c(=O)n(C3CC3)c(=O)c3c(Nc4ccc(I)cc4F)n(C)c(=O)c(C)c32)c1 [Trametinib]	0.34 ± 0.09	+++ (strong inhibitor (IC50 values less than 1 μM))	> 10 µM and 30.8 µM	-+ (slight inhibitors (IC50 values above 10 μM))	–	–	–	–	–	–	elevating hepatic serum enzymes	> 10	–	–
Cc1cc2nc3c(=O)[nH]c(=O)nc-3n(C[C@H](O)[C@H](O)[C@H](O)COP(=O)(O)OP(=O)(O)OC[C@H]3O[C@@H](n4cnc5c(N)ncnc54)[C@H](O)[C@@H]3O)c2cc1C [Flavin adenine dinucleotide]	6.62 ± 1.15	x (wrong class prediction)	10 ± 0.78 µM	+ (moderate inhibitors (IC50 values between 5 and 10 μM))	–	–	–	–	–	–	–	–	OATP1B1 inhibitor	–
CS(=O)(=O)CCNCc1ccc(-c2ccc3ncnc(Nc4ccc(OCc5cccc(F)c5)c(Cl)c4)c3c2)o1 [Lapatinib]	0.37 ± 0.19	+++ (strong inhibitor (IC50 values less than 1 μM))	> 10 µM and 33.8 µM	-+ (slight inhibitors (IC50 values above 10 μM))	–	–	–	some literature reports for hepatotoxicity	causing hyperbilirubinemia	–	–	> 10	–	–
COc1cc(C(=O)NS(=O)(=O)c2ccccc2C)ccc1Cc1cn(C)c2ccc(NC(=O)OC3CCCC3)cc12 [Zafirlukast]	7.84 ± 0.49	+ (moderate inhibitors (IC50 values between 5 and 10 μM))	4.96 ± 0.92 µM	++ (moderately strong inhibitor (IC50 values between 1 and 5 μM))	–	–	–	some literature reports for hepatotoxicity	causing hyperbilirubinemia	–	–	–	–	–
COc1ccc2c(c1)C(=O)N(CCc1ccc(S(=O)(=O)NC(=O)NC3CCCCC3)cc1)C(=O)C2(C)C [Gliquidone]	7.45 ± 1.64	+ (moderate inhibitors (IC50 values between 5 and 10 μM))	1.17 ± 0.31 µM	++ (moderately strong inhibitor (IC50 values between 1 and 5 μM))	–	–	–	–	–	–	–	–	–	improve liver injury
CCCCc1oc2ccc(NS(C)(=O)=O)cc2c1C(=O)c1ccc(OCCCN(CCCC)CCCC)cc1 [Dronedarone hydrochlorid e]	0.32 ± 0.07	+++ (strong inhibitor (IC50 values less than 1 μM))	1.12 ± 0.2 µM	++ (moderately strong inhibitor (IC50 values between 1 and 5 μM))	–	–	–	some literature reports for hepatotoxicity	causing hyperbilirubinemia	–	–	–	–	–
CN(C)c1cccc2c(S(=O)(=O)N[C@@H](Cc3ccc(OS(=O)(=O)c4cccc5c(N(C)C)cccc45)cc3)C(=O)O)cccc12 [N,O-Didansyl-L-Tyrosine]	6.07 ± 0.56	+ (moderate inhibitors (IC50 values between 5 and 10 μM))	2.94 ± 0.75 µM	++ (moderately strong inhibitor (IC50 values between 1 and 5 μM))	–	–	–	–	–	–	–	–	–	–
